Experimental data as given in ChEMBL document CHEMBL4354807, “Natural Product Albiziabioside A Conjugated with Pyruvate Dehydrogenase Kinase Inhibitor Dichloroacetate To Induce Apoptosis-Ferroptosis-M2-TAMs Polarization for Combined Cancer Therapy” (J Med Chem, 2019).
pIC50: −log10 of the molar value. Calls of active or inactive are those of the source. The rule behind the calls is not given here.

Assays:
MCF7 [1] = assay: Induction of metabolic reversal from aerobic glycolysis to oxidative phosphorylation in human MCF7 cells assessed as decrease in oxygen consumption rate at 2 uM pretreated for 6 hrs followed by oligomycin A addition after 25 mins followed by subsequent addition of FCCP after 50 mins followed by antimycin/rotenone addition after 80 mins by seahorse XF24 extracellular flux analyzer assay; type: functional, cell-based
Mus musculus [2] = assay: Modulation of tumor immunosuppressive activity in BALB/c mouse xenografted with mouse 4T1 cells assessed as increase in IFNgamma expression in tumor administered intratumorally every other day for 14 days measured at 2 days post-last dose by ELISA; type: functional, organism-based
L02 = assay: Cytotoxicity against human LO2 cells assessed as combination index after 72 hrs by MTT assay; type: cell-based; details: l02, 72 h
[3] = Toxicity in BALB/c nude mouse xenografted with human MCF7 cells assessed as effect on lung at 2 mg/kg, iv administered every 2 days for 2 weeks measured after 14 days by hematoxylin and eosin staining based histopathological analysis; type: organism-based; details: in vivo, 336 h
[4] = Toxicity in BALB/c nude mouse xenografted with human MCF7 cells assessed as effect on liver at 2 mg/kg, iv administered every 2 days for 2 weeks measured after 14 days by hematoxylin and eosin staining based histopathological analysis; type: organism-based; details: in vivo, 336 h
MCF7 [5] = assay: Induction of ROS generation in human MCF7 cells assessed as ROS level at 2 uM after 24 hrs by DCFDA-fluorescence based flow cytometry (reference value: 6.57 %); type: functional
4T1 [6] = assay: Induction of M2-TAM polarization in mouse 4T1 cells assessed as decrease in MRC1 mRNA expression at 2 uM after 48 hrs by Western blot analysis relative to control; type: functional
[7] = Toxicity in BALB/c nude mouse xenografted with human MCF7 cells assessed as effect on AST level in blood at 2 mg/kg, iv administered every 2 days for 2 weeks measured after 14 days; type: organism-based; details: in vivo, 336 h
[8] = Toxicity in BALB/c nude mouse xenografted with human MCF7 cells assessed as effect on spleen at 2 mg/kg, iv administered every 2 days for 2 weeks measured after 14 days by hematoxylin and eosin staining based histopathological analysis; type: organism-based; details: in vivo, 336 h
4T1 [9] = assay: Induction of M2-TAM polarization in mouse 4T1 cells assessed as decrease in MRC1 protein level at 2 uM after 48 hrs by Western blot analysis relative to control; type: functional
MCF7 [10] = assay: Induction of ferroptosis in human MCF7 cells assessed as cell death at 2 uM pretreated with exogenous iron Fe2+ followed by compound treatment by MTT assay; type: functional, cell-based
[11] = Toxicity in BALB/c nude mouse xenografted with human MCF7 cells assessed as effect on heart at 2 mg/kg, iv administered every 2 days for 2 weeks measured after 14 days by hematoxylin and eosin staining based histopathological analysis; type: organism-based; details: in vivo, 336 h
MCF7 [12] = assay: Induction of ferroptosis in human MCF7 cells assessed as cell death at 2 uM pretreated with iron chelating agent deferoxamine followed by compound treatment by MTT assay; type: functional, cell-based
[13] = Cytotoxicity against human HBMEC cells assessed as combination index after 72 hrs by MTT assay; type: cell-based
[14] = Toxicity in BALB/c nude mouse xenografted with human MCF7 cells assessed as effect on body weight at 2 mg/kg, iv administered every 2 days for 2 weeks measured after 14 days; type: organism-based; details: in vivo, 336 h
[15] = Selectivity index, ratio IC50 for cytotoxicity against human HBMEC cells assessed as reduction in cell viability after 72 hrs by MTT assay to IC50 for anticancer activity against mouse 4T1 cells assessed as reduction in cell viability after 72 hrs by MTT assay
MCF7 [16] = assay: Synergistic anticancer activity against human MCF7 cells overexpressing assessed as combination index after 72 hrs by MTT assay; type: functional
MCF7 [17] = assay: Induction of apoptosis in human MCF7 cells assessed as viable cells at 2 uM after 24 hrs by Annexin V-FITC/propidium iodide staining-based flow cytometric analysis (reference value: 93.39 %); type: functional; details: MCF7, 24 h, read-out: Activity
MCF7 [18] = assay: Cytotoxicity against human MCF7 cells assessed as cell death at 2 uM pretreated with Z-VAD-fmk followed by compound addition by MTT assay; type: functional, cell-based
[19] = Drug metabolism assessed as carboxylesterase (unknown origin)-mediated compound cleavage at aniline-amide bond after 2 hrs by HPLC analysis; type: ADME; details: human
[20] = Selectivity index, ratio IC50 for cytotoxicity against human LO2 cells assessed as reduction in cell viability after 72 hrs by MTT assay to IC50 for anticancer activity against mouse 4T1 cells assessed as reduction in cell viability after 72 hrs by MTT assay
MCF7 [21] = assay: Inhibition of glycolysis in human MCF7 cells assessed as reduction in intracellular lactate level at 2 uM after 6 hrs by microplate reader assay; type: functional, cell-based
A-375 = assay: Synergistic anticancer activity against human A375 cells expressing assessed as combination index after 72 hrs by MTT assay; type: functional
4T1 [22] = assay: Inhibition of glycolysis in mouse 4T1 cells expressing PDK assessed as reduction in extracellular lactate level at 2 uM after 6 hrs by microplate reader assay; type: functional, cell-based
4T1 [23] = assay: Anticancer activity against mouse 4T1 cells expressing PDK assessed as reduction in cell viability after 72 hrs by MTT assay; type: functional, cell-based; details: 4T1, 72 h
MCF7 [24] = assay: Induction of apoptosis in human MCF7 cells assessed as increase in caspase 9 expression at 2 uM after 48 hrs by Western blot analysis relative to control; type: functional
Mus musculus [25] = assay: Modulation of tumor immunosuppressive activity in BALB/c mouse xenografted with mouse 4T1 cells assessed as increase in TNFalpha expression in tumor administered intratumorally every other day for 14 days measured at 2 days post-last dose by ELISA; type: functional, organism-based
4T1 [26] = assay: Reversal of immunosuppression against mouse 4T1 cells implanted in BALB/c mouse assessed as reduction in tumor volume at 2 mg/kg administered intratumorally every 2 days for 2 weeks measured after 14 days; type: functional
MCF7 [27] = assay: Antitumor activity against human MCF7 cells xenografted in BALB/c nude mouse assessed as suppression of tumor progression at 2 mg/kg, iv administered every two days for two weeks measured after 14 days relative to control; type: functional
[28] = Stability of compound in plasma (unknown origin) 37 degree C measured after 2 hrs by HPLC analysis; type: ADME, cell-free
MCF7 [29] = assay: Induction of apoptosis in human MCF7 cells assessed as late apoptotic cells at 2 uM after 24 hrs by Annexin V-FITC/propidium iodide staining-based flow cytometric analysis (reference value: 2.97 %); type: functional
4T1 [30] = assay: Reversal of immunosuppression against mouse 4T1 cells implanted in BALB/c mouse assessed as growth inhibition of primary tumor at 2 mg/kg administered intratumorally every 2 days for 2 weeks measured after 14 days; type: functional, organism-based
4T1 [31] = assay: Induction of M2-TAM polarization in mouse 4T1 cells assessed as decrease in Arg1 mRNA expression at 2 uM after 48 hrs by Western blot analysis relative to control; type: functional
[32] = Toxicity in BALB/c nude mouse xenografted with human MCF7 cells assessed as effect on kidney at 2 mg/kg, iv administered every 2 days for 2 weeks measured after 14 days by hematoxylin and eosin staining based histopathological analysis; type: organism-based; details: in vivo, 336 h
MCF7 [33] = assay: Induction of ferroptosis in human MCF7 cells assessed as cell death at 2 uM pretreated with antioxidant vitamin E followed by compound treatment by MTT assay; type: functional, cell-based

Structure (SMILES): CC1(C)CC[C@]2(C(=O)O)CC[C@]3(C)C(=CC[C@@H]4[C@@]5(C)CC[C@H](O[C@@H]6O[C@H](CO[C@@H]7OC[C@H](O)[C@H](O)[C@H]7O)[C@@H](O)[C@H](O)[C@H]6NC(=O)C(Cl)Cl)C(C)(C)[C@@H]5CC[C@]43C)[C@@H]2C1
- Activity (MCF7 [1]): Active
- Activity (Mus musculus [2]): Active
- CI (L02): 2.13
- Activity [3]: Non-Toxic
- Activity [4]: Non-Toxic
- Activity (MCF7 [5]): 44.19%
- fold change (FC) (4T1 [6]): 3.4
- Activity [7]: Non-Toxic
- Activity [8]: Non-Toxic
- fold change (FC) (4T1 [9]): 3.4
- Activity (MCF7 [10]): Active
- Activity [11]: Non-Toxic
- Activity (MCF7 [12]): inactive
- CI [13]: 1.41
- Activity [14]: Non-Toxic
- Ratio IC50 [15]: 29.16
- CI (MCF7 [16]): 0.03
- viability at 2 µM (MCF7 [17]): 47%
- Activity (MCF7 [18]): inactive
- Drug metabolism [19]: Metabolite_Detected
- Ratio IC50 [20]: 40.56
- inhibition (MCF7 [21]): Active
- CI (A-375): 0.7
- inhibition (4T1 [22]): Active
- pIC50 (4T1 [23]): 5.88
- fold change (FC) (MCF7 [24]): 6
- Activity (Mus musculus [25]): Active
- Activity (4T1 [26]): <100 mm3
- Activity (MCF7 [27]): 100%
- Stability [28]: Stable
- Activity (MCF7 [29]): 22.92%
- growth inhibition (GI) (4T1 [30]): Active
- fold change (FC) (4T1 [31]): 2.1
- Activity [32]: Non-Toxic
- Activity (MCF7 [33]): inactive
